Results reported in US20130316985A1, “GPR35 Ligands And Uses Thereof” (CORNING INCORPORATED, priority 2012, published 2013).
Entries after “also recorded” stand apart in the source; their conditions may differ. Read-outs that look alike come from different tables or passages of the source. Values belong to the compound of their own block, whether it stands above or below them.

Assays:
GPR35 [1] = target: T1, GPR35 (Homo sapiens, UniProt Q9HC97); experiment: DMR agonism assay in native HT-29 cells (Epic optical biosensor); conditions: for DMR signal in HT-29 cells (in words): agonism mode
T1 sequence (Q9HC97 whole entry, the tested form may be a part): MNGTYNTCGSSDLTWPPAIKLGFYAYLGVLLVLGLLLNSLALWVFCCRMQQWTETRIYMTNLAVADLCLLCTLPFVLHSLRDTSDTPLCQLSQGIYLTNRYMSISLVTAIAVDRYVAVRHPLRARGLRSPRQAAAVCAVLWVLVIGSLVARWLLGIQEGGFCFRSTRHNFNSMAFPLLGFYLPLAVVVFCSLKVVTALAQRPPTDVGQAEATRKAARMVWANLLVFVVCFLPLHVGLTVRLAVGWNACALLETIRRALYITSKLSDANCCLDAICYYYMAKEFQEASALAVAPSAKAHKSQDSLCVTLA

GPR35 [2] = target: T1, GPR35; experiment: Tango β-arrestin translocation gene reporter assay in U2OS-GPR35-bla cells; format: cell-based; parameters: TEV protease site (C); Gal4-VP16 transcription factor (C); conditions: for EC50: read-out: Potency EC50, Tango; for β-arrestin translocation (Tango) signal (in words): 2,3-DNP up to 1 mM, 3,4-DNP at 1 mM
GPR35 [3] = target: T1, GPR35
GPR35 [4] = target: T1, GPR35; conditions: U2OS-GPR35-bla
GPR35 [5] = target: T1, GPR35; experiment: cell-based
GPR35 [6] = target: T1, GPR35; remark: listed apart in the source
[7] = U2OS-GPR35-bla cells, β-arrestin translocation, mean ± s.d.
[8] = HT-29, ML-145 at different doses 10 min before agonist at fixed dose
[9] = U2OS-GPR35-bla, zaprinast maximal response in same plate = 100%, read-out: efficacy (Tango, normalized to maximal response of zaprinast)
[10] = maximal response normalized to the zaprinast maximal response, read-out: Efficacy Tango
[11] = maximal DMR response in HT-29 (2,5-DNP: amplitude at 50 min)
[12] = maximal response normalized to the zaprinast maximal response

EC50 (GPR35 [1]): 0.0218 µM
EC50 (GPR35 [2]; [7]): 1.26 µM
agonist type compared to zaprinast, based on maximal responses in Tango assays (GPR35 [2]; U2OS-GPR35-bla, listed as olasalazine): full agonists
SMILES: O=C(O)c1cc(/N=N/c2ccc(O)c(C(=O)O)c2)ccc1O (single isomer, unassigned) [olsalazine]

SMILES: O=[N+]([O-])c1ccc(O)c([N+](=O)[O-])c1 [2,4-DNP, 2,4-dinitrophenol]
inhibition of the agonist-induced DMR by ML-145 (in words) (GPR35 [3]): partial inhibition; also recorded: partially inhibited
Efficacy DMR (GPR35 [1]): 249 ± 17 pm
Emax (GPR35 [2]; read-out: Efficacy Tango): 28 ± 1%
EC50 (GPR35 [2]): 272 µM
Emax (GPR35 [2]; read-out: efficacy (Tango, normalized to maximal response of zaprinast)): 28%

SMILES: O=[N+]([O-])c1cc(O)c(O)c([N+](=O)[O-])c1 [3,5-dinitrocatechol]
EC50 (GPR35 [2]): 123 µM

inhibition of the agonist-induced DMR by ML-145 (in words) (GPR35 [3]; [8]): can be blocked by ML-145
block of the agonist-induced Tango signal by ML-145 (in words) (GPR35 [4]): can be blocked by ML-15
DMR signal in HT-29 cells (in words) (GPR35 [1]): active
β-arrestin translocation (Tango) signal (in words) (GPR35 [2]; U2OS-GPR35-bla): trigger Tango signal
SMILES: COc1cccc(O)c1O [3-methoxycatechol]

EC50 (GPR35 [1]): 0.00209 µM
agonist type compared to zaprinast, based on maximal responses in Tango assays (GPR35 [2]; U2OS-GPR35-bla): strong partial agonist
EC50 (GPR35 [2]; [7]): 1.7 µM
SMILES: O=C(O)c1cc(/N=N/c2ccc(O)c(C(=O)O)c2)ccc1O [Bi-ASA, (E)-(5,5-diazene-1,2-diyl)bis(2-hydroxybenzoic acid)]

EC50 (GPR35 [5]): 14.7 µM
agonist type compared to zaprinast, based on maximal responses in Tango assays (GPR35 [2]; U2OS-GPR35-bla): weak partial agonist
EC50 (GPR35 [2]; [7]): 545 µM
SMILES: Nc1ccc(O)c(C(=O)O)c1 [Compound 5-ASA, 5-aminosalicylic acid]

Emax (GPR35 [2]; [9]): 6%
Emax (GPR35 [2]; [10]): 6 ± 1%
SMILES: CCN(CC)C(=O)/C(C#N)=C/c1cc(O)c(O)c([N+](=O)[O-])c1 [Entacapone]

EC50 (GPR35 [6]): 8.66 µM
inhibition of the agonist-induced DMR by ML-145 (in words) (GPR35 [3]; [8]): partially inhibited
Efficacy DMR (GPR35 [1]; [11]): 257 ± 16 pm
EC50 (GPR35 [2]; [7]): 54.4 µM
efficacy (Tango, normalized to maximal response of zaprinast) (GPR35 [2]; U2OS-GPR35-bla, zaprinast maximal response in same plate = 100%): 13%
Efficacy Tango (GPR35 [2]; [12]): 13 ± 1 % zaprinast
SMILES: O=C(c1cc(O)c(O)c([N+](=O)[O-])c1)c1ccccc1F [Ro41-0960]

SMILES: Cc1ccc(C(=O)c2cc(O)c(O)c([N+](=O)[O-])c2)cc1 [Tolcapone, 3,4-dihydroxy-4′-methyl-5-nitrobenzophenone]
EC50 (GPR35 [6]): 7.44 µM
inhibition of the agonist-induced DMR by ML-145 (in words) (GPR35 [3]; [8]): partially inhibited
inhibition of the agonist-induced DMR by ML-145 (in words) (GPR35 [3]; HT-29, ML-145 at different doses 10 min before agonist at fixed dose, listed as tolcapone): partial inhibition
DMR signal in HT-29 cells (in words) (GPR35 [1]): positive DMR with an early peak followed by a small decay to another elevated plateau
Efficacy DMR (GPR35 [1]; [11]): 400 ± 33 pm
EC50 (GPR35 [2]; [7]): 49.2 µM
Emax (GPR35 [2]; [9]): 25%
Emax (GPR35 [2]; [10]): 25 ± 2%

Efficacy DMR (GPR35 [1]; [11]): 254 ± 14 pm
Emax (GPR35 [2]; [9]): 100%
Efficacy Tango (GPR35 [2]; [12]): 100 ± 9 % zaprinast
SMILES: CCCOc1ccccc1-c1nc(=O)c2[nH]nnc2[nH]1 [Zaprinast]

EC50 (GPR35 [5]): 2.59 µM
agonist type compared to zaprinast, based on maximal responses in Tango assays (GPR35 [2]; U2OS-GPR35-bla): full agonists
EC50 (GPR35 [2]; [7]): 46.2 µM
SMILES: O=C(O)CCNC(=O)c1ccc(/N=N/c2ccc(O)c(C(=O)O)c2)cc1 [balsalazide]

inhibition of the agonist-induced DMR by ML-145 (in words) (GPR35 [3]; [8]): can be blocked by ML-145
block of the agonist-induced Tango signal by ML-145 (in words) (GPR35 [4]): can be blocked by ML-15
DMR signal in HT-29 cells (in words) (GPR35 [1]): active
β-arrestin translocation (Tango) signal (in words) (GPR35 [2]; U2OS-GPR35-bla): trigger Tango signal
SMILES: CCCCCCCCOC(=O)c1cc(O)c(O)c(O)c1 [octyl gallate]

inhibition of the agonist-induced DMR by ML-145 (in words) (GPR35 [3]; [8]): can be blocked by ML-145
block of the agonist-induced Tango signal by ML-145 (in words) (GPR35 [4]): can be blocked by ML-15
DMR signal in HT-29 cells (in words) (GPR35 [1]): active
β-arrestin translocation (Tango) signal (in words) (GPR35 [2]; U2OS-GPR35-bla): trigger Tango signal
SMILES: CCCOC(=O)c1cc(O)c(O)c(O)c1 [propyl gallate]

inhibition of the agonist-induced DMR by ML-145 (in words) (GPR35 [3]; [8]): can be blocked by ML-145
block of the agonist-induced Tango signal by ML-145 (in words) (GPR35 [4]): can be blocked by ML-15
DMR signal in HT-29 cells (in words) (GPR35 [1]): active
β-arrestin translocation (Tango) signal (in words) (GPR35 [2]; U2OS-GPR35-bla): trigger Tango signal
SMILES: Oc1cccc(O)c1O [pyrogallol]

EC50 (GPR35 [5]): 2.99 µM
agonist type compared to zaprinast, based on maximal responses in Tango assays (GPR35 [2]; U2OS-GPR35-bla): partial agonist
EC50 (GPR35 [2]; [7]): 31.3 µM
SMILES: O=C(O)c1cc(/N=N/c2ccc(S(=O)(=O)Nc3ccccn3)cc2)ccc1O [sulfasalazine]
